The subject of one test is winter wheat. In words: Test D preemergence. It counts as in vivo, Triticum aestivum. The text has this:
(§1) Seeds of plant species selected from bluegrass (annual bluegrass, Poa annua), blackgrass (Alopecurus myosuroides), canarygrass (littleseed canarygrass, Phalaris minor), chickweed (common chickweed, Stellaria media), galium (catchweed bedstraw, Galium aparine), bromegrass, downy (downy bromegrass, Bromus tectorum), field poppy (Papaver rhoeas), field violet (Viola arvensis), green foxtail (Setaria viridis), deadnettle (henbit deadnettle, Lamium amplexicaule), Italian ryegrass (Lolium multiflorum), kochia (Kochia scoparia), lambsquarters (Chenopodium album), oilseed rape (Brassica napus), pigweed (Amaranthus retroflexus), chamomile (scentless chamomile, Matricaria inodora), Russian thistle (Salsola kali), speedwell (bird's-eye speedwell, Veronica persica), spring barley (Hordeum vulgare), spring wheat (Triticum aestivum), wild buckwheat (Polygonum convolvulus), wild mustard (Sinapis arvensis), wild oat (Avena fatua), wild radish (Raphanus raphanistrum), windgrass (Apera spica-venti), winter barley (Hordeum vulgare), and winter wheat (Triticum aestivum) were planted into a silt loam soil and treated preemergence with test chemicals formulated in a non-phytotoxic solvent mixture which included a surfactant.
(§2) At the same time, these species were planted in pots containing Redi-Earth® planting medium (Scotts Company, 14111 Scottslawn Road, Marysville, Ohio 43041) comprising spaghnum peat moss, vermiculite, wetting agent and starter nutrients and treated with postemergence applications of the test chemicals formulated in the same manner. Plants ranged in height from 2 to 18 cm (1- to 4-leaf stage). Treated plants and controls were maintained in a controlled growth environment for 7 to 21 days after which time all species were compared to controls and visually evaluated. Plant response ratings, summarized in Table D, are based on a scale of 0 to 100 where 0 is no effect and 100 is complete control. A dash (-) response means no test result.

The subject of another test is spring wheat. In words: Test D preemergence. It is filed as in vivo, Triticum aestivum.
Source text: as §1, §2

A further test has as its system blackgrass. In words: Test D postemergence. It counts as in vivo, Alopecurus myosuroides.
Source text: as §1, §2

The subject of test [1] is wild mustard. In words: Test D postemergence. It counts as in vivo, Sinapis arvensis. The method in brief:
(§3)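 After treatment, visual injury versus untreated plants, 0–100 scale, assessed at 7 to 21 days. Applications were made preemergence to silt loam-sown seed and postemergence to seedlings 2–18 cm high in potting medium.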

The next test concerns windgrass. In words: Test D postemergence. It is filed as in vivo, Apera spica-venti. Summed up: as §3
Test [2] has as its system wild mustard. In words: Test D preemergence. It is filed as in vivo, Sinapis arvensis. The method in brief:
as §3

The mark [3] stands for this setting: 16 g ai/ha, scale 0 (no effect) to 100 (complete control).
[4] abbreviates: 31 g ai/ha, scale 0 (no effect) to 100 (complete control).
Setting [5] is: 31 g ai/ha, scale 0 to 100 (0 no effect, 100 complete control).
[6] abbreviates: 62 g ai/ha, scale 0 to 100 (0 no effect, 100 complete control).
Setting [7] is: 125 g ai/ha, scale 0 to 100 (0 no effect, 100 complete control).

Structures are written as SMILES.

Turning to `Fc1cccc(Oc2ncc(Cl)cn2)c1-n1cc(C(F)F)nn1` [Compound 141, 5-chloro-2-[2-[4-(difluoromethyl)-1H-1,2,3-triazol-1-yl]-3-fluorophenoxy]pyrimidine], the plant injury at 16 g/ha in the test with winter wheat (Triticum aestivum, pre-emergence, 16 g ai/ha, scale 0 (no effect) to 100 (complete control), read-out: Plant response rating, Wheat, Winter) was 15%; in the test on spring wheat (Triticum aestivum, pre-emergence, 16 g ai/ha, scale 0 (no effect) to 100 (complete control), read-out: Plant response rating, Wheat, Spring), 25%. Moreover, the plant injury at 31 g/ha in the test on winter wheat (Triticum aestivum, pre-emergence, 31 g ai/ha, scale 0 (no effect) to 100 (complete control), read-out: Plant response rating, Wheat, Winter) came out at 20%; in the test on spring wheat (Triticum aestivum, pre-emergence, 31 g ai/ha, scale 0 (no effect) to 100 (complete control), read-out: Plant response rating, Wheat, Spring) it was 30%. Moreover, the plant injury at 62 g/ha is 60% in the test on winter wheat (Triticum aestivum, pre-emergence, 62 g ai/ha, scale 0-100, read-out: Plant response rating, Wheat, Winter) and 65% in the test on spring wheat (Triticum aestivum, pre-emergence, 62 g ai/ha, scale 0-100, read-out: Plant response rating, Wheat, Spring). The plant injury at 125 g/ha in the test with winter wheat (Triticum aestivum, pre-emergence, 125 g ai/ha, scale 0-100, read-out: Plant response rating, Wheat, Winter) stood at 60%; with spring wheat (Triticum aestivum, pre-emergence, 125 g ai/ha, scale 0-100, read-out: Plant response rating, Wheat, Spring), 75%. For the same compound, the pest or weed control at 62 g/ha was determined as 35% in the test on blackgrass (Alopecurus myosuroides, post-emergence, Postemergence, 62 g ai/ha, scale 0 to 100 (0 no effect, 100 complete control), read-out: Plant response rating, Blackgrass); 100% in the test with wild mustard [1] (Brassica, post-emergence, 62 g ai/ha, scale 0 to 100 (0 no effect, 100 complete control), read-out: Plant response rating, Mustard, Wild); 50% with windgrass (Apera spica-venti, post-emergence, 62 g ai/ha, scale 0 to 100 (0 no effect, 100 complete control), read-out: Plant response rating, Windgrass); 100% in the test on wild mustard [2] (Brassica, pre-emergence, 62 g ai/ha, scale 0-100, read-out: Plant response rating, Mustard, Wild). For the same compound, the pest or weed control at 16 g/ha stood at 10% with blackgrass (Alopecurus myosuroides, post-emergence, Postemergence, 16 g ai/ha, scale 0 to 100 (0 no effect, 100 complete control), read-out: Plant response rating, Blackgrass); 80% with wild mustard [1] (Brassica, post-emergence, 16 g ai/ha, scale 0-100, read-out: Plant response rating, Mustard, Wild); 5% with windgrass (Apera spica-venti, post-emergence, 16 g ai/ha, scale 0-100, read-out: Plant response rating, Windgrass); 90% in the test with wild mustard [2] (Brassica, pre-emergence, 16 g ai/ha, scale 0 (no effect) to 100 (complete control), read-out: Plant response rating, Mustard, Wild). Also, the pest or weed control at 31 g/ha in the test on blackgrass (Alopecurus myosuroides, post-emergence, Postemergence, 31 g ai/ha, scale 0 to 100 (0 no effect, 100 complete control), read-out: Plant response rating, Blackgrass) is 25%; in the test on wild mustard [1] (Brassica, post-emergence, 31 g ai/ha, scale 0 to 100 (0 no effect, 100 complete control), read-out: Plant response rating, Mustard, Wild), 100%; with windgrass (Apera spica-venti, post-emergence, 31 g ai/ha, scale 0 to 100 (0 no effect, 100 complete control), read-out: Plant response rating, Windgrass), 10%; with wild mustard [2] (Brassica, pre-emergence, 31 g ai/ha, scale 0-100, read-out: Plant response rating, Mustard, Wild), 100%. Besides, the pest or weed control at 125 g/ha in the test with blackgrass (Alopecurus myosuroides, post-emergence, Postemergence, 125 g ai/ha, scale 0 to 100 (0 no effect, 100 complete control), read-out: Plant response rating, Blackgrass) turned out to be 55%; with wild mustard [1] (Brassica, post-emergence, 125 g ai/ha, scale 0 to 100 (0 no effect, 100 complete control), read-out: Plant response rating, Mustard, Wild), 100%; in the test on windgrass (Apera spica-venti, post-emergence, 125 g ai/ha, scale 0 to 100 (0 no effect, 100 complete control), read-out: Plant response rating, Windgrass), 60%; in the test on wild mustard [2] (Brassica, pre-emergence, 125 g ai/ha, scale 0-100, read-out: Plant response rating, Mustard, Wild) it was 100%.

Turning to `FCc1cccc(Oc2ncc(Cl)cn2)c1-n1cc(I)cn1` [Compound 245], the “Plant response rating, Wheat, Winter” value in the test on winter wheat (setting [3]) worked out at 10; in the test with winter wheat (setting [4]) it was 15; in the test on winter wheat (125 g ai/ha, scale 0-100) it was 30. Moreover, the “Plant response rating, Wheat, Spring” value with spring wheat (setting [3]) was found to be 5; in the test on spring wheat (setting [4]), 10; with spring wheat (125 g ai/ha, scale 0-100), 20. Besides, the “Plant response rating, Blackgrass” value in the test with blackgrass (Postemergence, 62 g ai/ha, scale 0 to 100 (0 no effect, 100 complete control)) was found to be 20; with blackgrass (Postemergence, 31 g ai/ha, scale 0 to 100 (0 no effect, 100 complete control)), 10; in the test with blackgrass (Postemergence, 125 g ai/ha, scale 0 to 100 (0 no effect, 100 complete control)) it was 25; with blackgrass (postemergence, 16 g ai/ha, scale 0 to 100, 0 no effect, 100 complete control) it was 5. Moreover, the “Plant response rating, Mustard, Wild” value is reported as 80 with wild mustard [1] (16 g ai/ha, scale 0-100); 70 in the test on wild mustard [1] (setting [5]); 100 in the test with wild mustard [1] (setting [6]); 98 with wild mustard [1] (setting [7]); 80 in the test with wild mustard [2] (setting [3]); 80 in the test with wild mustard [2] (31 g ai/ha, scale 0-100). The “Plant response rating, Mustard, Wild” value with wild mustard [2] (62 g ai/ha, scale 0-100) is on record as 85; in the test with wild mustard [2] (125 g ai/ha, scale 0-100), 100. In addition, the “Plant response rating, Windgrass” value in the test with windgrass (16 g ai/ha, scale 0-100) is on record as 10; in the test on windgrass (setting [5]) it was 15; in the test with windgrass (setting [6]), 15; in the test on windgrass (setting [7]), 25.

Source of the values: US9695155B2, “Herbicidal substituted pyrimidinyloxy benzene compounds” (E. I. DU PONT DE NEMOURS AND COMPANY, priority 2013, dated 2017).
